Data as given in patent US4558052A, “10-Bromosandwicine, 10-bromoisosandwicine, pharmaceutical compositions thereof, and methods of treating heart rhythm disorders with them” (Kali-Chemie Pharma GmbH, priority 1979, dated 1985).
Entries after “also recorded” stand apart in the source; their conditions may differ. Counter-ions that a name gives are not always drawn.

Tests used:
[1] = system: cardiac extra-systoles induced by aconitine; test: Antiarrhythmic activity against cardiac extra-systoles induced by aconitine in rats (Raschack); assay type: in vivo; conditions: i.v., equitoxic dose about 5% of the i.p. LD50 in mice, aconitine 5 μg/kg/min i.v., vs control group
Procedure: C. Determination of antiarrhythmic activity against cardiac extra-systoles induced by aconitine in rats.
The protective effects of the compounds against extra-systoles (ES) caused by aconitine infusion in rats are determined according to the method of Raschack (Arzneimittelforsch. 25 (1975) 639-641).
Male Wistar rats having a body weight of 320-400 g are anesthetized by i.p. application of 1.25 g/kg urethane. The animals are placed on their backs and their electrocardiogram is registered every 30 seconds during the test. The animals are given an i.v. aconitine infusion at an infusion rate of 5 μg/kg/min of aconitine with an infusion volume of 0.1 ml/minute. 5 Minutes prior to starting the aconitine infusion the animals are given a solution of the test compound in an amount of 2 ml/kg bodyweight of isotonic NaCl solution by i.v. infusion over a period of about 2.5 minutes. A control group of animals is given only the vehicle solution. The infusion time until occurence of extra-systoles is determined.
Antiarrhythmically active test compounds lead to a retardation of the onset of aconitine-induced cardiac extra-systoles in the treated animals as compared with the group of control animals. The degree of prolongation of aconitine-infusion time and thus of increase of administered amount of aconitine up to which the animals are protected against the aconitine induced extra-systoles is an indication of the degree of antiarrhythmic activity of the test compounds.
Equitoxic doses of the test compounds are used namely doses which correspond to about 5% of the i.p. LD50 of the compound in mice. The % increase in aconitine infusion time (that is % increase of administered amount of aconitine) until onset of the extra-systoles in the treated animals as compared with the control group is determined.

male NMRI-mice [2] = test: Minimum symptom dose at which any undesirable side effects are detected (Campbell and Richter); assay type: in vivo; conditions: dose causing changes in behaviour in 2 out of 3 mice
Procedure: B. Determination of minimum symptom dose at which any undesirable side effects are detected.
The minimum symptom dose is determined in male NMRI-mice (body weight range 18-22 g) according to the procedure of Campbell and Richter (see D. E. S. Campbell and W. Richter. Acta Pharmacol. Toxicol. 25 (1967) pp. 345-363). The minimum symptom dose is defined as that dose in μmol/kg which after i.p. administration causes changes in behaviour in 2 out of 3 mice. The minimum symptom dose is a measure for evaluation of undesirable side effects.

male NMRI-mice [3] = test: Acute toxicity LD50 i.p. and p.o. in mice; assay type: in vivo; conditions: probit analysis
Procedure: A. Determination of acute toxicity LD50 i.p. and p.o. in mice.
The acute toxicity of the compounds is determined in male NMRI-mice (body weight range 18-22 g) after i.p. or p.o. administration. The LD50 values are calculated by means of electronic data processing through a probit analysis.

[4] = words, known from literature; cited from earlier work
[5] = Antiarrhythmic activity in a standard pharmacological in vivo test procedure; conditions: words

SMILES	Minimum symptom dose i.p. (male NMRI-mice [2])	Toxicity LD50 i.p. (male NMRI-mice [3])	Toxicity LD50 p.o. (male NMRI-mice [3])	cardiac / antiarrhythmic activities [4]	further results
CCC1C2CC3C4N(C)c5ccccc5C45CC(C2C5O)N3C1O (stereo not drawn) [Isosandwicine hydrogen fumarate]	10 µmol/kg	~ 56 μmol/kg	471 µmol/kg		ES-inhibiting effect (result in words) [1]: not significant
CC[C@H]1[C@@H]2C[C@H]3[C@@H]4N(C)c5ccccc5[C@]45C[C@@H]([C@H]2[C@H]5O)N3[C@@H]1O [Ajmaline]				cardiac activities including antiarrhythmic activities	
CCC1C2CC3C4N(C)c5ccc(Br)cc5C45CC(C2C5O)N3C1O (stereo not drawn) [10-bromoisosandwicine hydrogen tartrate, 10-bromoisosandwicinium hydrogentartrate]	3 µmol/kg	25 µmol/kg	65 µmol/kg		Antiarrhythmic activity, ES-inhibiting effect: % prolongation of aconitine infusion time until onset of extra-systoles [1]: 25%
CCC1C2CC3C4N(C)c5ccc(Br)cc5C45CC(C2C5O)N3C1O (stereo not drawn) [10-bromosandwicine hydrogen tartrate, 10-bromosandwicine hydrogentartrate]	92 µmol/kg	307 µmol/kg	2200 µmol/kg		Antiarrhythmic activity, ES-inhibiting effect: % prolongation of aconitine infusion time until onset of extra-systoles [1]: 25%
CCC1C2CC3C4N(C)c5ccccc5C45CC(C2C5O)N3C1O (stereo not drawn) [sandwicine, Sandwicine]					antiarrhythmic activity [5]: no significant antiarrhythmic effects; also recorded: no significant antiarrhythmic activities
CCC1C2CC3C4N(C)c5ccccc5C45CC(C2C5O)N3C1O (stereo not drawn) [isosandwicine]					antiarrhythmic activity [5]: no significant antiarrhythmic effects; also recorded: no significant antiarrhythmic activities
CCC1C2CC3C4N(C)c5ccccc5C45CC(C2C5O)N3C1O (stereo not drawn) [Sandwicine hydrogen tartrate]	58 µmol/kg	~ 325 μmol/kg	1530 µmol/kg		ES-inhibiting effect (result in words) [1]: not significant
CCC1C2CC3C4N(C)c5ccc(Br)cc5C45CC(C2C5O)N3C1O (stereo not drawn) [10-bromoajmaline]				cardiac activities	
CC[C@@H]1[C@H]2C[C@H]3[C@@H]4N(C)c5ccccc5[C@]45C[C@@H](C2[C@H]5O)N3[C@H]1O (stereo partly drawn) [isoajmaline]				cardiac activities including antiarrhythmic activities	
